The subject of one experiment is non-diabetic SPRD rats. The experiment can be described thus: Reduction of the blood glucose level after per-oral dosage (via gavage) to non-diabetic SPRD rats. It counts as in vivo. The method, then: The reduction in blood glucose in non-diabetic rats was examined after:
3) Vehicle SEDDS containing 62.5% propylene glycol, 31.25% Capmul MCM C10 and 6.25% poloxamer 407 was dosed orally. SEDDS had been melted at 35° C. before dosing.
(mean±SEM, n=5-6, dosage volume=4 ml/kg).

The subject of another experiment is non diabetic dogs. In words: Reduction in blood glucose after oral administration of enteric coated capsule to non diabetic dogs. It counts as in vivo. The note with it: overnight fasted dogs, propylene glycol, Capmul MCM, Pluronic F127, PEG 3350.

Consider A14GluB25HisdesB30 human insulin, for which, in the experiment on non-diabetic SPRD rats (4800 nmol/kg in SEDDS (propylene glycol, Capmul MCM C10, poloxamer 407) or 4880 nmol/kg in H2O, FIG. 4), the Blood glucose level entry is reported as “Reduction of the Blood Glucose Level”. The Blood glucose levels result with non diabetic dogs (oral enteric coated capsule: 46 mg A14GluB25HisdesB30 human insulin, FIG. 2) is “Reduction in blood glucose levels”.

For the substance Asp^B28 human insulin [insulin aspart], the Blood glucose level entry in the experiment with non-diabetic SPRD rats (9600 nmol/kg in SEDDS (propylene glycol, Capmul MCM C10, poloxamer 407) or 9800 nmol/kg in H2O, FIG. 3) is on record as “Reduction of the Blood Glucose Level”. Besides, in the experiment on non diabetic dogs (oral enteric coated capsule: 69 mg insulin aspart, FIG. 1), the Blood glucose levels result was “Reduction in blood glucose levels”.
